Results taken from patent US10959984B2, “Methods for treating cancer with RORγ inhibitors” (THE REGENTS OF THE UNIVERSITY OF CALIFORNIA, priority 2015, dated 2021).

What was measured:
C4-2B and 22Rv1 cells [1] = experiment: Apoptosis (caspase-3/7 activity, TUNEL); type: cell-based, human
Procedure: (§1) For apoptosis, Terminal deoxynucleotidyl transferase-mediated dUTP nick end labeling (TUNEL) was performed by using in situ cell death detection kit (Roche) as previously described^56. The results are expressed as a percentage of apoptotic cell number/total cell number. Caspase-3/7 activity was measured using a luminescent caspase-Glo 3/7 assay kit (Promega Corporation, Madison, USA) following the manufacturer's instructions. For cell growth, cells were seeded in 6-well plates at 2×10^5 per well and treated as indicated. Total viable cell numbers were counted using a Coulter cell counter. For colony formation, 800 cells were seeded in a well of 6-well plates and cultured for 14 days with the medium changed every 3 days. When the cell clone grew visible, the medium was removed and the cells were fixed with […] formalin for 10 minutes. Then the plates were washed with PBS for two times and the cell colonies were stained with 0.2% crystal violet (in 10% formalin) for 15 minutes. The numbers of cell colonies were counted after washed 5 times by PBS. The above assays were performed in triplicates and the entire experiments were repeated three times.

[2] = system: H3K4me3 and H3K27ac at the RORE site and AR promoter; experiment: ChIP-qPCR at the AR-RORE site and AR promoter; type: cell-based, human; conditions: C4-2B cells, 5 μM, 24 h
Procedure: ChIP-qPCR analysis was performed as described previously^49. The antibodies used for ChIP assay are AR (Santa Cruz; sc-815); RNA Pol-II (Santa cruz; sc-899); H3K4me2 (Abcam ab32356); H3K4me3 (Abcam; ab8580); H3K27ac (Abcam; ab4729); H3 (Active Motif; #39163); p300 (Santa Cruz; sc-585); SRC-1 (Santa Cruz; sc-8995); SRC-3/ACTR^64, and IgG (Santa Cruz; sc-2027). PCR primers used in the ChIP assays were listed in the Supplementary table 2. ChiPs were performed with each experimental point in triplicate, and each experiment was repeated three times.

[3] = system: C4-2B, VCaP and 22Rv1 xenograft tumors; experiment: Xenograft tumor growth, three AR-positive tumor models; type: in vivo, mice; conditions: 5 mg/kg, i.p., five times per week; including ENZ-resistant 22Rv1
Procedure: (§2) Four-week-old male SCID C.B17 mice (for C4-2B and VCaP) or BALB/c nu/nu athymic mice (for 22Rv11 and PC-3) were purchased from Harlan Inc. For establishing tumors, 2×10^6 cells were suspended in total of 100 μL PBS/Matrigel (1:1) and implanted subcutaneously into the dorsal flank on both sides of the mice. Animal group size of six or more was estimated to have a high statistic power, based on power calculation (http://www.biomath.info/power/) and previous studies involving the same xenograft models^34,68. When the tumor volume was approximately 80 mm^3, the mice were randomized and then treated intraperitoneally (i.p.) with 100 μl of either vehicle or RORγ antagonists SR2211, XY011/8k (in a formulation of 15% Cremophor EL, Calbiochem, 82.5% PBS, and 2.5% DMSO) for five times per week. Tumor growth was monitored by calipers with volume calculated using the equation: (π/6 (length×width2)). Body weight during the course of the study was also monitored. At the end of the studies mice were killed and tumors were dissected and weighed. Additionally, prostate, seminal vesicle, testis, kidney, heart, lung, liver, epididymal fat pad and spleen were harvested and weighed. To assess the effect of combining RORγ antagonists and ENZ on the growth of castrated-resistant VCaP xenografts (CRPC-VCaP), first, SCID C.B17 mice were injected with VCaP cells as above to establish the tumors. […]

AR and AR-V7 = experiment: AR and AR variant expression (immunoblotting, qRT-PCR); type: cell-based, human
Procedure: Total RNA was isolated from cells in 6-well or 10-cm plates or from xenograft tumors, and the cDNA was prepared, amplified and measured in the presence of SYBR as previously^49. Briefly, the fluorescent values were collected and a melting curve analysis was performed. Fold difference was calculated as described previously^49. The experiments were performed at least three times with data presented as mean values±s.d. Cell lysates were analyzed by immunoblotting with antibodies specifically recognizing RORγ, AR, AR-V7 and the indicated proteins. The PCR primers and all the antibodies used in this study are described in the Tables 3 and 4.

[4] = system: OVCAR420, T24, ECC1, HepG2, Hep3B, T98G, SUDHL4, SUDHL6, HCT116 and docetaxel-resistant C4-2B cells; experiment: CellTiter-GLO viability, cells of other cancer types; type: cell-based, human; conditions: ovarian OVCAR420, bladder T24, endometrial ECC1, liver HepG2 and Hep3B, glioblastoma T98G, DLBCL SUDHL4 and SUDHL6, colon HCT116, docetaxel-resistant C4-2B; 4 days
Procedure: (§3) For cell viability, cells were seeded in 96-well plates at 1500-2500 cells per well (optimum density for growth) in a total volume of 100 μl media. Serially diluted compounds in […] of media were added to the cells 12 hours later. After 4 days of incubation, Cell-Titer GLO reagents (Promega) were added and luminescence was measured on GLOMAX microplate luminometer (Promega), according to the manufacturer's instructions. All experimental points were set up as sextuplicate as biological replication and the entire experiments were repeated three times. The data are presented as percentage of viable cells with vehicle treated cells set as 100. The estimated in vitro IC50 values were calculated using GraphPad Prism 6 software.
(§4) Using a CellTiter-GLO assay, the viability of cells of different cancer types was measured after treatment with different concentrations of RORγ small molecule inhibitors for 4 days.

C4-2B and 22Rv1 cells [5] = experiment: Colony formation, 14 d; type: cell-based, human
Procedure: as §1

lung cancer cells = experiment: CellTiter-GLO viability, lung cancer cells; type: cell-based, human; conditions: NSCLC cells: KRAS mutant (A427, Calu1, A549, H23, H358), BRAF mutant (H1666), EGFR mutant (HCC827, PC-9), Erlotinib-resistant (A427, H1975); 4 days
Procedure: as §3, §4

CRPC-VCaP xenografts = experiment: Castration-resistant VCaP (CRPC-VCaP) xenograft tumor growth; type: in vivo; conditions: castrated mice, SR2211 alone, 5 mg/kg i.p.
Procedure: as §2

breast cancer cells = experiment: CellTiter-GLO viability, breast cancer cells; type: cell-based, human; conditions: cells having different major molecular features, 4 days
Procedure: as §3, §4

OC(c1ccc(-c2ccc(CN3CCN(Cc4ccncc4)CC3)cc2)c(F)c1)(C(F)(F)F)C(F)(F)F [SR2211, 2-Fluoro-4′-[[4-(4-pyridinylmethyl)-1-piperazinyl]methyl]-a,a-bis (trifluoromethyl)-[1,1′-biphenyl]-4-methanol]
apoptosis (C4-2B and 22Rv1 cells [1]): marked apoptosis
gene activating marks H3K4me3 and H3K27ac at the RORE site and AR promoter [2]: strongly reduced
tumor growth [3]: effectively stopped the tumor growth
expression of AR and AR-V7 (AR and AR-V7; C4-2B and VCaP cells, 72 h): potently inhibited the expression of AR and AR-V7 in a dose-dependent manner
AR expression (AR and AR-V7; C4-2B cells, 5 μM, 24 hours): significant but incomplete suppression of AR expression
AR (full-length and spliced variants such as ARV7) mRNA and protein expression (AR and AR-V7; qRT-PCR and Western blotting, PCa cells): strongly inhibited the expression of AR
growth and survival of cancer cells of other types [4]: significant inhibition of the growth and survival
colony formation (C4-2B and 22Rv1 cells [5]): poor colony formation
growth and survival of lung cancer cells (lung cancer cells): strongly inhibited the growth and survival of lung cancer cells
CRPC tumor growth (CRPC-VCaP xenografts): very potent in inhibition of the CRPC tumor growth
growth and survival of breast cancer cells (breast cancer cells): strongly inhibited the growth and survival of breast cancer cells
